The values below come from patent US11395798B2, “O/W type emulsion” (NOF CORPORATION, priority 2015, dated 2022).

“Also recorded” adds a separate entry of the source.

Data set [1] is described as follows: particle size distribution by dynamic light scattering (Zetasizer Nano ZS). It counts as physicochemical. As for the experimental part:
The particle size distribution of the prepared emulsion was measured by dynamic light scattering using Zetasizer Nano ZS. The measurement conditions were 1 mM emulsion (40 μL) at 25° C. As a result, in all compositions, the volume median diameter was not more than 100 nm and, when a linear head was used (i.e., the formula (I) wherein X^a and X^b are each X^1), the particle size was not more than 50 nm. The drug recovery rate was not less than 85% (FIG. 1, Table 2).
EPC and Cholesterol were mixed to achieve 1000 nmol and a PEG lipid was added. Chloroform in an amount equal to that of the lipid ethanol solution was added and the mixture was dried under a nitrogen blow. PBS (1 mL) was added to the lipid membrane after drying and the mixture was stood for 10 min and sonicated by a bath-type sonicator for 3 min to give a particle suspension. The particle size distribution of the prepared particles was measured by dynamic light scattering in the same manner as in Example 1.
The particle size distribution of the produced emulsion solution was measured by dynamic light scattering similarly to Example 1. As a result, when DOPC was used, the volume median diameter was near 40 nm irrespective of pH.
An ethanol solution containing 500 nmol as a total of cationic B-2, DOPE, and Cholesterol was prepared, and a PEG lipid was added in the above-mentioned amount. Ethanol was added to make the total amount 200 μL, and the mixture was stood at ice temperature for 15 min. A similarly ice-cooled malic acid buffer (20 mM, pH 3.0, 0-1000 mM NaCl) (200 μL) was mixed within 3 sec under vortex. PBS (NISSUI) (3600 μL) was immediately added thereto. The mixture was subjected to ultrafiltration using Amicon Ultra (Millipore). The centrifugation conditions were 1000 G, 25° C. An operation including addition of 3200 μL of PBS after centrifugation for 10 min was repeated twice and the sample was concentrated to about 500 μL. The concentrate was diluted with PBS to a mass of 1000 mg to give a 0.5 mM (lipid concentration) emulsion. The particle size distribution of the produced emulsion solution was measured by dynamic light scattering similarly to Example 1.
The volume median diameter and the surface potential were measured using the dynamic light scattering (Zetasizer Nano; Malvern) in the same manner as in Example 1.
The average particle size of the produced particles was measured in the same manner as in Example 1 and the results are shown in Table 7.

The nature of data set [2]: organ accumulation of particles in 4T1 tumor-bearing mouse (IVIS). The settings on record: intravenous, lipid 800 nmol, 24 hr after administration, DiR fluorescence. It counts as in vivo, BALB/c mouse. As for the experimental part: As cationic lipid, B-2 and B-2-5 were used. As conventional lipid, DODAP and EPC were used. The preparation methods of the O/W type emulsion and particle suspensions (DODAP, EPC) followed the methods described in Example 1 and Comparative Example 1. To visualize pharmacokinetics of the oil droplets constituting the O/W type emulsion or particle suspension (DODAP, EPC), fluorescent dye DiR was added by 0.2 mol % of the lipid. The particle concentration was adjusted to 4 mM as a lipid concentration.
As a tumor-bearing mouse, 4T1 cell (mouse breast cancer) was used. 1×10^6 4T1 cells were subcutaneously transplanted to the right flank of BALB/c mouse (♀, 4-week-old). At 7 days from the transplantation, 200 μL (lipid 800 nmol) of the O/W type emulsion or particle suspension (DODAP, EPC) containing fluorescence-modified particles was intravenously administered. At 24 hr after administration, […] was performed, and the spleen, liver and tumor were collected and image was obtained by IVIS. The average fluorescence intensity was calculated using Living Image Software.
As a cationic lipid, B-2 was used. An O/W type emulsion was prepared according to Example 3. In this preparation, 4-Methylumbelliferon (10 mol %) was used as a model drug and DMG-PEG2000 (10 mol %) and DSG-PEG2000 (2.5 mol %) were used as PEG lipids, and a 4.0 mM (based on lipid concentration) emulsion was prepared. To visualize pharmacokinetics of the oil droplets constituting the O/W type emulsion or particle suspension (DODAP, EPC), fluorescent dye DiR was added by 0.2 mol % of the lipid. As the salt (NaCl) concentration during preparation of particles, 30 mM, 150 mM, 750 mM were selected and taken as “Small”, “Medium”, “Large”, respectively. The particle concentration was adjusted to 4 mM as a lipid concentration.
The organ distribution in a tumor-bearing mouse was evaluated in the same manner as in Experimental Example 1. As a result, accumulation in the spleen, liver decreased as the particle size became smaller.

The nature of data set [3]: DexPal-carrying rate by high performance liquid chromatography. It counts as physicochemical. The following applies: DexPal-carrying LNP. As for the experimental part:
1 mM DexPal-carrying LNP (50 μL) was mixed with phosphate buffer (pH 7.4) (50 μL), and 50 μL thereof was mixed with MeOH (50 μL). 0.1% Trifluoroacetic acid/acetonitrile (400 μL) was added, and DexPal was detected by high performance liquid chromatography (column: InertSustain C18, 5 μm, 4.6 mm×250 mm (GL Sciences Inc.), mobile phase: MeOH:0.1% trifluoroacetic acid/acetonitrile=70:30, flow rate: 1 mL/min, detector: 240 nm, injection volume: 200 μL). As the analytical curve of Dex-Pal, 0.5 mM, 0.25 mM, 0.125 mM, 0.0625 mM, DexPalethanol solution (50 μL) was mixed with MeOH (50 μL), and 50 μL thereof was mixed with phosphate buffer (pH 7.4) (50 μL). 0.1% Trifluoroacetic acid/acetonitrile (400 μL) was added, and DexPal was detected by a method similar to that for DexPal-carrying LNP. The peak area and concentration were plotted, and the DexPal concentration and carrying rate in the DexPal-carrying LNP were calculated.

A short description of data set [4]: drug release and reduction responsibility test (dialysis, with or without 10 mM glutathione). In kind it is physicochemical. As for the experimental part:
Using B-2, B-2-5, O-C3M, B-2-3, TS-P4C2 or L-PZ4C2 as a cationic lipid, an O/W type emulsion having a composition of cationic lipid:DOPC:Cholesterol=3:4:3 (molar ratio) was prepared. In this preparation, DSG-PEG2000 (9 mol %) was used as a PEG lipid. As a drug model molecule, 4-Methylumbelliferon Palmitate (30 mol %) was used and fluorescent probe DiD (1 mol %) was used for calibration by particles concentration.
An ethanol solution containing 1000 nmol as a total of cationic lipid, DOPE, and Cholesterol was prepared, and PEG lipid, drug model molecule and fluorescent probe were added in the above-mentioned amounts. Ethanol was added to make the total amount 400 μL, and the mixture was stood at 37° C. for 15 min. A similarly heated malic acid buffer (20 mM, pH 3.0, 30 mM NaCl) (400 μL) was mixed within 3 sec under vortex. PBS (NISSUI) (3200 μL) was immediately added thereto. The mixture was subjected to ultrafiltration using Amicon Ultra (Millipore) The centrifugation conditions were 1000 g, 25° C. […]
400 μL of the prepared emulsion was placed in a dialysis membrane (Spectrum Lab) having a molecular weight cutoff of 1000 and dialyzed against 40 mL of PBS at 37° C. […] After penetration and stirring at 60° C. for 30 min, the amounts of 4MU and DiD in the solution were quantified by fluorescence measurement (4MU: Ex385, Em450 DiD: Ex645, Em665). […]

Where [5] appears, read: O/W emulsion cationic lipid:DOPE:Cholesterol=3:4:3, 4-Methylumbelliferon 10 mol %, DMG-PEG2000 10 mol %, DSG-PEG2000 2.5 mol %.
[6] abbreviates: O/W emulsion cationic lipid:DOPE:Cholesterol=3:4:3, 4-Methylumbelliferon 10 mol %, DMG-PEG2000 10 mol %, DSG-PEG2000 2.5 mol %, 1 mM, 25° C.
[7] abbreviates: DexPal-carrying particles (lipid, DOPC, Chol, DMG-PEG2000, DSG-PEG2000, DexPal).

`Cc1c(C)c2c(c(C)c1OC(=O)CCC(=O)OCCCN(C)CCSSCCN(C)CCCOC(=O)CCC(=O)Oc1c(C)c(C)c3c(c1C)CCC(C)(CCCC(C)CCCC(C)CCCC(C)C)O3)CCC(C)(CCCC(C)CCCC(C)CCCC(C)C)O2` (stereo not drawn) [B-2-5] showed a PdI in data set [1] (setting [5]) of 0.164. In data set [1] (setting [6]), the volume median diameter stood at 41.2 nm. Moreover, the “accumulation in the liver” value in data set [2] was “superior in accumulation in the liver; also recorded: found”.
For `CCCCCCCCCCCCCC(=O)OCCCN(C)CCSSCCN(C)CCCOC(=O)CCCCCCCCCCCCC` [B-2], the volume median diameter was 30-50 nm in data set [1] (B-2:DOPE:Cholesterol=3:4:3, 15 mol % DMG-PEG2000, NaCl concentration of 60 mM or below at preparation); at most 100 nm in data set [1] (B-2:DOPE:Cholesterol=3:4:3, 15 mol % DMG-PEG2000, salt concentration of 500 mM or below at preparation); 41.4 ± 0.7 nm·days in data set [1] (setting [7]); 37.6 nm in data set [1] (setting [6]). In addition, the PdI came to 0.15 ± 0.01 in data set [1] (DexPal-carrying particles) and 0.465 in data set [1] (setting [5]). In addition, in data set [3], the carrying rate stood at 90.6 ± 5.2%. Besides, the transfer into tumor result in data set [2] is reported as “transfer well into tumor”.
Consider `CCCCCCCC/C=C\CCCCCCCC(=O)OC[C@H](COP(=O)([O-])OCC[N+](C)(C)C)OC(=O)CCCCCCC/C=C\CCCCCCCC` [DOPC, dioleoylphosphatidylcholine], for which the volume median diameter is listed as 41.5 nm in data set [1] (B-2:helper lipid:Cholesterol=3:4:3, 15 mol % DMG-PEG2000, malic acid buffer pH 3.0); 40.5 nm in data set [1] (B-2:helper lipid:Cholesterol=3:4:3, 15 mol % DMG-PEG2000, malic acid buffer pH 4.0); 45.6 nm in data set [1] (B-2:helper lipid:Cholesterol=3:4:3, 15 mol % DMG-PEG2000, malic acid buffer pH 5.0); “about 40 nm” in data set [1] (B-2:helper lipid:Cholesterol=3:4:3, irrespective of pH (3.0-5.0)). Further, the PdI was 0.319 in data set [1] (B-2:helper lipid:Cholesterol=3:4:3, 15 mol % DMG-PEG2000, pH 3.0); 0.214 in data set [1] (B-2:helper lipid:Cholesterol=3:4:3, 15 mol % DMG-PEG2000, pH 4.0); 0.196 in data set [1] (B-2:helper lipid:Cholesterol=3:4:3, 15 mol % DMG-PEG2000, pH 5.0).
Take `CCCCCCCC/C=C\CCCCCCCC(=O)OCC(CN(C)C)OC(=O)CCCCCCC/C=C\CCCCCCCC` (stereo not drawn) [DODAP]: the values for the PdI in data set [1] (DexPal-carrying particles) and in data set [1] (particle suspension of conventional lipid (DODAP:DOPE:Cholesterol=3:4:3 or EPC:Cholesterol=3:2)) were 0.15 ± 0.01 and 0.418, respectively. Besides, the volume median diameter in data set [1] (setting [7]) was determined as 39.1 ± 2.2 nm·days; in data set [1] (particle suspension of conventional lipid (DODAP:DOPE:Cholesterol=3:4:3 or EPC:Cholesterol=3:2), 4-Methylumbelliferon 10 mol %) it was 34.8 nm. In addition, in data set [3], the carrying rate turned out to be 89.6 ± 2.9%. The “release of drug model substance” value in data set [4] (conventional lipid particle suspension, 24 hr, under any conditions (reduction or nonreduction)) is recorded as “hardly released”. Besides, in data set [4] (conventional lipid:DOPC:Cholesterol=3:4:3 particle suspension, 4-Methylumbelliferon Palmitate 30 mol %), the responsiveness under reduction entry is “not found”. Also, in data set [2], the transfer into tumor entry is given as “transfer well into tumor”.
In turn, `Cc1c(C)c2c(c(C)c1OC(=O)CCC(=O)OCCC1CCN(CCSSCCN3CCC(CCOC(=O)CCC(=O)Oc4c(C)c(C)c5c(c4C)CCC(C)(CCCC(C)CCCC(C)CCCC(C)C)O5)CC3)CC1)CCC(C)(CCCC(C)CCCC(C)CCCC(C)C)O2` (stereo not drawn) [TS-P4C2] yielded a PdI in data set [1] (setting [5]) of 0.063. Further, the volume median diameter in data set [1] (setting [6]) amounted to 87.9 nm.
In the case of `CCCCCCCC/C=C\CCCCCCCC(=O)OCCCN(C)CCSSCCN(C)CCCOC(=O)CCCCCCC/C=C\CCCCCCCC` [O-C3M], the PdI in data set [1] (setting [5]) was determined as 0.228. The same molecule had a volume median diameter in data set [1] (setting [6]) of 38.4 nm.
